Test results: the CheMixHub viscosity set

Experiment: xn = mol fraction of the nth substance listed

CCCC(=O)OCC + CCCCCC
303.15 K, 101 kPa
Details | viscosity [mPa·s]
x1 = 0.1354 | 0.3067
x1 = 0.2995 | 0.3404
x1 = 0.3884 | 0.3564
x1 = 0.4879 | 0.388
x1 = 0.7244 | 0.4602

Cc1ccncc1 + CC(C)O
298.15 K, 101.33 kPa
Details | viscosity [mPa·s]
x2 = 0.0886 | 0.8731
x2 = 0.1711 | 0.8916
x2 = 0.2569 | 0.9174
x2 = 0.4424 | 0.9998
x2 = 0.5207 | 1.048
x2 = 0.6685 | 1.181
x2 = 0.8095 | 1.405
x2 = 0.8831 | 1.599

CCCCCCCCCC(=O)OCC + CCCCO
viscosity [mPa·s], 100 kPa
Details | x1 = 0.1006 | x1 = 0.2001 | x1 = 0.3011 | x1 = 0.3996 | x1 = 0.4999 | x1 = 0.6021 | x1 = 0.7009 | x1 = 0.7986 | x1 = 0.9001
293.15 K | 2.504 | 2.299 | 2.212 | 2.15 | 2.125 | 2.139 | 2.168 | 2.2 | 2.258
298.15 K | 2.217 | 2.037 | 1.967 | 1.916 | 1.914 | 1.921 | 1.962 | 1.984 | 2.047
303.15 K | 1.977 | 1.825 | 1.769 | 1.733 | 1.727 | 1.738 | 1.777 | 1.798 | 1.854
308.15 K | 1.764 | 1.643 | 1.596 | 1.568 | 1.569 | 1.581 | 1.608 | 1.639 | 1.687
313.15 K | 1.581 | 1.488 | 1.455 | 1.433 | 1.431 | 1.444 | 1.469 | 1.501 | 1.543
318.15 K | 1.424 | 1.344 | 1.322 | 1.305 | 1.31 | 1.324 | 1.355 | 1.379 | 1.42
